test system: HT29 cells; test: Inhibition of cell necrosis (CCK8 method), induced programmed necrosis of HT29 cells; format: cell-based; conditions: Homo sapiens, HT-29; rescue from necrosis induced by TNF-α 20 ng/mL, AT-406 1 μM, Z-VAD-FMK 20 μM; 16-20 hours; CCK-8, OD 450 nm
In short: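 Rescue from programmed necrosis was scored by CCK-8 absorbance at 450 nm after 16-20 h of TNF-α (20 ng/mL), AT-406 (1 μM) and Z-VAD-FMK (20 μM) at 37 °C, 5% CO2. HT29 cells had received compound 30 min earlier across nine 4-fold dilutions (top 25000 nM final). IC50 came from % inhibition relative to uninduced and induced-only wells.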

Question: Which IC50 does the source give for `Cc1ccc(OCC2CCN(C)CC2)cc1-c1ccnc(NC(=O)c2nnc(Cc3ccccc3F)[nH]2)c1` [Example 234, 5-(2-fluorobenzyl)-N-(4-(2-methyl-5-((1-methylpiperidin-4-yl)methoxy)phenyl)pyridin-2-yl)-4H-1,2,4-triazole-3-carboxamide] here?
Answer: ≤ 100 nM

Question: `CC(C)(O)CCCOc1ccc(Cl)c(-c2ccnc(NC(=O)c3nnc(CC4CCCCC4)[nH]3)c2)c1` [Example 357, N-(4-(2-chloro-5-((4-hydroxy-4-methylpentyl)oxy)phenyl)pyridin-2-yl)-5-(cyclohexylmethyl)-4H-1,2,4-triazole-3-carboxamide] was tested. Which IC50 did it give?
Answer: ≤ 100 nM

Question: For `CC(C)(O)CCCOc1ccc(Cl)c(-c2ccnc(NC(=O)c3nnc(Cc4cc(-c5ccccc5)ccc4F)[nH]3)c2)c1` [Example 504, N-(4-(2-chloro-5-((4-hydroxy-4-methylpentyl)oxy)phenyl)pyridin-2-yl)-5-((4-fluoro-[1,1′-biphenyl]-3-yl)methyl)-4H-1,2,4-triazole-3-carboxamide], which IC50 is on record?
Answer: 100 to 1000 nM

Question: For `O=C(Nc1cc(-c2cc(OCC3CCOCC3)ccc2Cl)ncn1)c1nnc(CC2CCCC2)[nH]1` [Example 468, 5-(cyclopentylmethyl)-N-(6-(2-chloro-5-((tetrahydro-2H-pyran-4-yl)methoxy)phenyl)pyrimidin-4-yl)-4H-1,2,4-triazole-3-carboxamide], which IC50 is on record?
Answer: ≤ 100 nM

Question: Which IC50 does the source give for `CCOCCOc1ccc(C(F)(F)F)c(-c2ccnc(NC(=O)c3nnc(CC4CCCC4)[nH]3)c2)c1` [Example 285, 5-(cyclopentylmethyl)-N-(4-(5-(2-ethoxyethoxy)-2-(trifluoromethyl)phenyl)pyridin-2-yl)-4H-1,2,4-triazole-3-carboxamide] here?
Answer: ≤ 100 nM

Question: For `CC(C)(O)CCCOc1ccc(C(F)(F)F)c(-c2ccnc(NC(=O)c3nnc(Cc4ccc(F)cc4)[nH]3)c2)c1` [Example 257, 5-(4-fluorobenzyl)-N-(4-(5-((4-hydroxy-4-methylpentyl)oxy)-2-(trifluoromethyl)phenyl)pyridin-2-yl)-4H-1,2,4-triazole-3-carboxamide], which IC50 is on record?
Answer: ≤ 100 nM

Question: With `CC(C)(O)CCCOc1ccc(Cl)c(-c2ccnc(NC(=O)c3nnc(Cc4ccc(F)c(F)c4)[nH]3)c2)c1` [Example 339, N-(4-(2-chloro-5-((4-hydroxy-4-methylpentyl)oxy)phenyl)pyridin-2-yl)-5-(3,4-difluorobenzyl)-4H-1,2,4-triazole-3-carboxamide] as the compound, how does the IC50 read?
Answer: 100 to 1000 nM

Question: For `Cc1ccc(OCCN2CCCCC2)cc1-c1ccnc(NC(=O)c2nnc(Cc3ccccc3F)[nH]2)c1` [Example 229, 5-(2-fluorobenzyl)-N-(4-(2-methyl-5-(2-(piperidin-1-yl)ethoxy)phenyl)pyridin-2-yl)-4H-1,2,4-triazole-3-carboxamide], which IC50 is on record?
Answer: 100 to 1000 nM

Question: For `CCOCCOc1ccc(Cl)c(-c2ccnc(NC(=O)c3nnc(CC4CCCC4)[nH]3)c2)c1` [Example 385, N-(4-(2-chloro-5-(2-ethoxyethoxy)phenyl)pyridin-2-yl)-5-(cyclopentylmethyl)-4H-1,2,4-triazole-3-carboxamide], which IC50 is on record?
Answer: ≤ 100 nM

Question: With `O=C(Nc1cc(-c2cc(OCC3CCOCC3)ccc2Cl)ccn1)c1nnc(CC2CCCCC2)[nH]1` [Example 402, N-(4-(2-chloro-5-((tetrahydro-2H-pyran-4-yl)methoxy)phenyl)pyridin-2-yl)-5-(cyclohexylmethyl)-4H-1,2,4-triazole-3-carboxamide] as the compound, how does the IC50 read?
Answer: ≤ 100 nM

Question: `COCCCOc1ccc(C)c(-c2ccnc(NC(=O)c3nnc(C(C)c4ccccc4)[nH]3)c2)c1` (stereo not shown) [Example 142, N-(4-(5-(3-methoxypropoxy)-2-methylphenyl)pyridin-2-yl)-5-(1-phenylethyl)-4H-1,2,4-triazole-3-carboxamide] was tested. Which IC50 did it give?
Answer: 100 to 1000 nM

Question: With `Cc1ccc(OCCCC(C)(C)O)cc1-c1cc(NC(=O)c2nnc(Cc3cccc(F)c3)[nH]2)ncn1` [Example 434, 5-(3-fluorobenzyl)-N-(6-(5-((4-hydroxy-4-methylpentyl)oxy)-2-methylphenyl)pyrimidin-4-yl)-4H-1,2,4-triazole-3-carboxamide] as the compound, how does the IC50 read?
Answer: ≤ 100 nM

Question: Which IC50 does the source give for `Cc1cnccc1-c1ccnc(NC(=O)c2nnc(Cc3ccccc3)[nH]2)c1` [Example 24, 5-benzyl-N-(3′-methyl-[4,4′-bipyridin]-2-yl)-4H-1,2,4-triazole-3-carboxamide] here?
Answer: 100 to 1000 nM

Question: `CC(C)(O)CCCCOc1ccc(C(F)(F)F)c(-c2ccnc(NC(=O)c3nnc(CC4CCCCC4)[nH]3)c2)c1` [Example 271, 5-(cyclohexylmethyl)-N-(4-(5-((5-hydroxyl-5-methylhexyl)oxy)-2-(trifluoromethyl)phenyl)pyridin-2-yl)-4H-1,2,4-triazole-3-carboxamide] was tested. Which IC50 did it give?
Answer: ≤ 100 nM

Question: With `Cc1ccc(OCCCC(C)(C)O)cc1-c1ccnc(NC(=O)c2nnc(Cc3cc(F)c(F)cc3F)[nH]2)c1` [Example 218, 5-(2,4,5-trifluorobenzyl)-N-(4-(5-((4-hydroxy-4-methylpentyl)oxy)-2-methylphenyl)pyridin-2-yl)-4H-1,2,4-triazole-3-carboxamide] as the compound, how does the IC50 read?
Answer: ≤ 100 nM

Question: For `COCCCOc1ccc(C)c(-c2ccnc(NC(=O)c3nnc(Cc4ccccc4)s3)c2)c1` [Example 146, 5-benzyl-N-(4-(5-(3-methoxypropoxy)-2-methylphenyl)pyridin-2-yl)-1,3,4-thiodiazol-2-carboxamide], which IC50 is on record?
Answer: 1000 to 10000 nM

Question: How did the IC50 turn out when `CCC(O)(CC)CCCOc1ccc(C)c(-c2cc(NC(=O)c3nnc(CC4CCCCC4)[nH]3)ncc2Cl)c1` [Example 245, N-(5-chloro-4-(5-((4-ethyl-4-hydroxyhexyl)oxy)-2-methylphenyl)pyridin-2-yl)-5-(cyclohexylmethyl)-4H-1,2,4-triazole-3-carboxamide] was run?
Answer: ≤ 100 nM

Question: For `CC(C)(O)CCCOc1ccc(F)c(-c2ccnc(NC(=O)c3nnc(Cc4ccccc4F)[nH]3)c2)c1` [Example 313, 5-(2-fluorobenzyl)-N-(4-(2-fluoro-5-((4-hydroxy-4-methylpentyl)oxy)phenyl)pyridin-2-yl)-4H-1,2,4-triazole-3-carboxamide], which IC50 is on record?
Answer: 100 to 1000 nM

Question: `COc1ccc(-c2ccnc(NC(=O)c3nnc(Cc4ccccc4)[nH]3)c2)cc1` [Example 9, 5-benzyl-N-(4-(4-methoxyphenyl)pyridin-2-yl)-4H-1,2,4-triazole-3-carboxamide] was tested. Which IC50 did it give?
Answer: > 10000 nM

Question: With `CCC(O)(CC)CCCOc1ccc(Cl)c(-c2ccnc(NC(=O)c3nnc(Cc4ccccc4)[nH]3)c2)c1` [Example 359, 5-benzyl-N-(4-(2-chloro-5-((4-ethyl-4-hydroxyhexyl)oxy)phenyl)pyridin-2-yl)-4H-1,2,4-triazole-3-carboxamide] as the compound, how does the IC50 read?
Answer: ≤ 100 nM

Question: With `Cc1ccc(OCCCO)cc1-c1ccnc(NC(=O)c2nnc(Cc3ccccc3)[nH]2)c1` [Example 140, 5-benzyl-N-(4-(5-(3-hydroxylpropoxy)-2-methylphenyl)pyridin-2-yl)-4H-1,2,4-triazole-3-carboxamide] as the compound, how does the IC50 read?
Answer: ≤ 100 nM

Question: For `CC(C)OCCOc1ccc(Cl)c(-c2ccnc(NC(=O)c3nnc(Cc4ccccc4)[nH]3)c2)c1` [Example 387, 5-benzyl-N-(4-(2-chloro-5-(2-isopropoxyethoxy)phenyl)pyridin-2-yl)-4H-1,2,4-triazole-3-carboxamide], which IC50 is on record?
Answer: ≤ 100 nM

Question: How did the IC50 turn out when `CC(C)(O)CCCOc1ccc(C(F)(F)F)c(-c2cc(NC(=O)c3nnc(CC4CCCCC4)[nH]3)ncn2)c1` [Example 453, 5-(cyclohexylmethyl)-N-(6-(5-((4-hydroxy-4-methylpentyl)oxy)-2-(trifluoromethyl)phenyl)pyrimidin-4-yl)-4H-1,2,4-triazole-3-carboxamide] was run?
Answer: ≤ 100 nM

Question: With `CC(C)(O)CCCOc1ccc(Cl)c(-c2cc(NC(=O)c3nnc(CC4CCCCC4)[nH]3)ncn2)c1` [Example 465, 5-(cyclohexylmethyl)-N-(6-(2-chloro-5-((4-hydroxy-4-methylpentyl)oxy)phenyl)pyrimidin-4-yl)-4H-1,2,4-triazole-3-carboxamide] as the compound, how does the IC50 read?
Answer: ≤ 100 nM

Question: `Cc1ccc(OCC2CCOCC2)cc1-c1ccnc(NC(=O)c2nnc(CC3CCCCC3)[nH]2)c1` [Example 80, 5-(cyclohexylmethyl)-N-(4-(2-methyl-5-((tetrahydro-2H-pyran-4-yl)methoxy)phenyl)pyridin-2-yl)-4H-1,2,4-triazole-3-carboxamide] was tested. Which IC50 did it give?
Answer: ≤ 100 nM

Question: With `Cc1ccc(OCCCOC(C)C)cc1-c1ccnc(NC(=O)c2nnc(Cc3ccccc3)[nH]2)c1` [Example 83, 5-benzyl-N-(4-(5-(3-isopropoxypropoxy)-2-methylphenyl)pyridin-2-yl)-4H-1,2,4-triazole-3-carboxamide] as the compound, how does the IC50 read?
Answer: ≤ 100 nM

Question: Which IC50 does the source give for `CC(C)(C)OCCOc1ccc(C=O)c(-c2ccnc(NC(=O)c3nnc(Cc4ccccc4)[nH]3)c2)c1` [Example 195, 5-benzyl-N-(4-(5-(2-(tert-butoxy)ethoxy)-2-formylphenyl)pyridin-2-yl)-4H-1,2,4-triazole-3-carboxamide] here?
Answer: ≤ 100 nM

Question: With `Cc1ccc(OCCCS(C)(=O)=O)cc1-c1ccnc(NC(=O)c2nnc(Cc3ccccc3)[nH]2)c1` [Example 73, 5-benzyl-N-(4-(2-methyl-5-(3-(methylsulfonyl)propoxy)phenyl)pyridin-2-yl)-4H-1,2,4-triazole-3-carboxamide] as the compound, how does the IC50 read?
Answer: ≤ 100 nM

Question: How did the IC50 turn out when `COc1cc(Cc2nnc(C(=O)Nc3cc(-c4cc(OCCCC(C)(C)O)ccc4Cl)ccn3)[nH]2)ccc1F` [Example 343, N-(4-(2-chloro-5-((4-hydroxy-4-methylpentyl)oxy)phenyl)pyridin-2-yl)-5-(4-fluoro-3-methoxybenzyl)-4H-1,2,4-triazole-3-carboxamide] was run?
Answer: 1000 to 10000 nM

Question: Which IC50 does the source give for `CC(C)(O)CCCOc1ccc(Cl)c(-c2ccnc(NC(=O)c3nnc(Cc4ccc(F)c(F)c4F)[nH]3)c2)c1` [Example 351, N-(4-(2-chloro-5-((4-hydroxy-4-methylpentyl)oxy)phenyl)pyridin-2-yl)-5-(2,3,4-trifluorobenzyl)-4H-1,2,4-triazole-3-carboxamide] here?
Answer: 100 to 1000 nM

Question: With `Cc1ccc(OCCOC(C)(C)C)cc1-c1ccnc(NC(=O)c2nnc(CC3CCCC3)[nH]2)c1` [Example 75, N-(4-(5-(2-(tert-butoxy)ethoxy)-2-methylphenyl)pyridin-2-yl)-5-(cyclopentylmethyl)-4H-1,2,4-triazole-3-carboxamide] as the compound, how does the IC50 read?
Answer: ≤ 100 nM
